Compound: C1=CC2=NC=CN=C2C=C1/C=C/3\C(=O)NC(=O)S3
Assay: relative viability (nuclei count vs DMSO), 5 days (fraction); higher = more cells survive
Conditions: 0.02 µM
In short: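 Viability is treated-well nuclei as a fraction of vehicle-well nuclei, reported as the median across plates. Before counting, lung cancer cell lines were kept overnight at 37 °C in 1536-well plates, pinned with five √10-spaced library-drug doses on vehicle-anchored plates, and left 5 days without medium change, then fixed, permeabilised and Hoechst-stained in one step, imaged at 4× and counted by MetaXpress. A plate passed only if control CV was below 25% and at least one doubling occurred.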

Cell Line	relative viability
NCI-H2085	0.952
Calu-6	0.971
HCC-366	0.979
NCI-H1666	0.944
NCI-H596	1.06
LK-2	1.02
NCI-H2087	0.918
SK-MES-1	0.971
H3255	0.984
COR-L23	0.967
COR-L 105	0.904
IA-LM	0.943
LOU-NH91	0.997
NCI-H2170	0.909
NCI-H2405	1.08
HOP-62	0.929

Cell Line	relative viability
HCC-44	0.895
A549	0.98
LU99A	1.07
BEN	0.922
HARA	0.84
HCC-78	0.9
NCI-H322M	0.935
LCLC-97TM1	0.822
NCI-H2009	0.996
A-427	0.963
NCI-H661	1.01
NCI-H1734	0.94
NCI-H460	0.933
NCI-H2347	0.971
SK-LU-1	1.06
NCI-H1395	1.05

Same assay, conditions: 0.06325 µM

Cell Line	relative viability
NCI-H2085	1.01
Calu-6	1.04
HCC-366	0.787
NCI-H1666	0.962
NCI-H596	0.938
LK-2	1.06
NCI-H2087	0.925
SK-MES-1	1.08
H3255	1.02
COR-L23	1.15
COR-L 105	1.05
IA-LM	1.09
LOU-NH91	0.988
NCI-H2170	1
NCI-H2405	1.02
HOP-62	0.945

Cell Line	relative viability
HCC-44	1.03
A549	0.999
LU99A	1.11
BEN	0.922
HARA	0.992
HCC-78	0.845
NCI-H322M	0.969
LCLC-97TM1	1.02
NCI-H2009	1.03
A-427	1.14
NCI-H661	1.04
NCI-H460	0.964
NCI-H2347	0.913
SK-LU-1	1.21
NCI-H1395	0.985

Same assay, conditions: 0.2 µM

Cell Line	relative viability
NCI-H2085	1
Calu-6	1.03
HCC-366	1.01
NCI-H1666	0.966
NCI-H596	1.1
LK-2	1.14
NCI-H2087	1.05
SK-MES-1	1.02
H3255	1.01
COR-L23	1.02
COR-L 105	1.01
IA-LM	0.926
LOU-NH91	1.01
NCI-H2170	1.01
NCI-H2405	1.02
HOP-62	1.06

Reference: the supplement of paper PMC10307832
